# Columns and labels:
# [1] = system: MCF7 cells; test: Cell growth assay in CDT/Tam over 9 days; format: cell-based, human
# Protocol: To understand the impact of RB deficiency on the response to hormone deprivation therapy, cells are cultured in CDT, CDT/Tam, or in the presence of pure antiestrogen, ICI182780 (CDT/ICI). Following treatment with these modalities, cells are labeled with BrdU to determine the influence of each agent on cell-cycle progression and the corresponding influence of RB knockdown on this response (FIG. 4B). These experiments are recapitulated in the polyclonal populations of T47D and Zr-75-1 donor and siRb88 cells (FIG. 4C). […] To elucidate the long-term growth effects of these therapies, cell proliferation assays are performed over 9 days. RB-proficient and -deficient MCF7 cells are seeded at equal densities and cultured in CDT/Tam (FIG. 4D). […] Similar results are evident in the same experiments with both T47D and Zr-75-1 RB-proficient and -deficient polyclonal pools (FIG. 4E).
# (§1) To study the effect of estrogen depletion, cells are cultured for 72 hours in phenol red-free DMEM supplemented with 10% CDT serum with addition of 10^−9 M 4-HydroxyTam or 10^−6 M ICI where indicated. Cell growth assays are performed by trypsinizing cells and counting by trypan blue exclusion every 3 days.
# [2] = system: MCF7, T47D, and Zr-75-1 cells; test: Immunoblot of cyclin D1 and RB phosphorylation after hormone deprivation with Tam; format: cell-based, human; conditions: wild-type cells; CDT serum in addition to Tam, 72 hours
# Protocol: RB-deficient cells are able to bypass estrogen ablation therapy. To determine the effect of first-line breast cancer antiestrogen therapies on RB function, cells are exposed to several therapeutically relevant conditions. Specifically, wild-type MCF7, T47D, and Zr-75-1 cells are cultured in medium containing either FBS or charcoal dextran-treated (CDT) serum in addition to Tam, so as to antagonize ER function. […] U20S and SaOS2 cells are included as controls for RB and PI 61NK4a expression levels, respectively (FIG. 4a).
# as §1
# Cells are harvested by trypsinization and lysed in RIPA buffer. Equal amounts of protein, as determined by Bio-Rad DC assay, are resolved by SDS-PAGE. Specific proteins are detected by standard immunoblotting procedures using the following primary antibodies: p16INK4a (F-12; 1:500 dilution), cyclin D1 (H295), PCNA (pc10), cyclin E (HE12), cyclin A (C-19), MCM7 (141.2), E2F3 (C-18), cdk4 (H-22), lamin B (M-20), p21 (C-19), p53 (Ab-6; 1:500 dilution), RB phospho ser 780 (9307S; 1:500 dilution) and anti-RB (G3-245; 1:100 dilution). […]
smiles,measurement,setting,value
"CC/C(=C(\c1ccccc1)c1ccc(OCCN(C)C)cc1)c1ccccc1 [Tam, tamoxifen]",cell proliferation over 9 days,[1]; MCF7 cells lacking RB cultured in CDT/Tam,continue to proliferate
same,cell proliferation over 9 days,[1]; control (RB-proficient) MCF7 cells cultured in CDT/Tam,did not exhibit cell proliferation
same,RB phosphorylation (immunoblot),[2],RB dephosphorylation
same,cyclin D1 levels (immunoblot),[2],cyclin D1 levels decreased
